Patent publication US9604931B2, “Nuclear receptor binding agents” (GTx, Inc., priority 2007, dated 2017)
Entries after “also recorded” stand apart in the source; their conditions may differ.

Columns and labels:
[1] = test system: Carrageenan-induced paw edema; experiment: Carrageenan-induced paw edema; format: in vivo; conditions: per-oral, 1 hr prior to Carrageenan; measured 4 hours post-Carrageenan
Procedure: FIG. 14 depicts the effect of 12b on the edema volume which was induced by Carrageenan (i.e. Carrageenan-induced […] as an acute inflammation model).
To determine the anti-inflammatory effects of ER-β NRBAs in vivo, animal paws were injected with carrageenan, which elicits an acute local inflammatory response.

[2] = test system: C-26 colon cancer cells; experiment: 3H thymidine incorporation, C-26 cells; format: cell-based; conditions: 3 days treatment
Procedure: (§1) The effects of treatment of an ER-β selective NRBA of this invention on cancer cell proliferation was examined using LNCaP prostate cancer cells and C-26 colon cancer cells. LNCaP or C-26 cells were plated in growth medium in 24 well and 6 well plates, respectively. LNCaP cells were treated for 6 days and C-26 cells were treated for 3 days at the indicated concentration. ^3H thymidine incorporation was measured at the end of treatment as an indicator of cell proliferation.

[3] = target: ERβ ligand binding domain (Homo sapiens, UniProt Q92731); experiment: Competitive [3H]-estradiol binding assay, ER-β (Example 21); conditions: for inhibition at 0.1 µM: read-out: Percent Inhibition of [3H]-Estradiol Binding to ER-β
Chain of ERβ ligand binding domain (Q92731 whole entry, looked up, the tested form may be a part): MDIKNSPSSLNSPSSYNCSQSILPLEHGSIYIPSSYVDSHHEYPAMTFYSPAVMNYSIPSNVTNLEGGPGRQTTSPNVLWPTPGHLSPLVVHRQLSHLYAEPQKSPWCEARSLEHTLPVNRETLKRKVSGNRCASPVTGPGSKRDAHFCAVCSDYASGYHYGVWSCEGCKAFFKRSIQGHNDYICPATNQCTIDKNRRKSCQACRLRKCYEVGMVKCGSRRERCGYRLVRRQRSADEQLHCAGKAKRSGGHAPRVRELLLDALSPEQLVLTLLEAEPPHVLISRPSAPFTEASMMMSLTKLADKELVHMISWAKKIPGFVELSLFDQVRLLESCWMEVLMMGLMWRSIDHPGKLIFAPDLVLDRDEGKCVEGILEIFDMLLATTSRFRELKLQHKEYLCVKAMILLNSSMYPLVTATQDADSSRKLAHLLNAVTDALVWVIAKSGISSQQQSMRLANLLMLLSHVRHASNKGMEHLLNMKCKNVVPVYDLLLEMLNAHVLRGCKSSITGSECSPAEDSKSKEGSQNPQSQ
Procedure: (§2) ER binding affinity was determined via one of the following methods:
(§3) Briefly, the incubation mixture was filtered through a high affinity protein binding filter, and washed several times to remove any unbound radioactivity. The filter plate was air dried and sealed on the bottom.
(§4) Nonspecific binding was subtracted from total binding to yield specific binding.

[4] = target: ERα ligand binding domain (Homo sapiens, UniProt P03372); experiment: Competitive [3H]-estradiol binding assay, ER-α (Example 21); conditions: 100 nM of compound; read-out: Percent Inhibition of [3H]-Estradiol Binding to ER-α
Chain of ERα ligand binding domain (P03372 whole entry, looked up, the tested form may be a part): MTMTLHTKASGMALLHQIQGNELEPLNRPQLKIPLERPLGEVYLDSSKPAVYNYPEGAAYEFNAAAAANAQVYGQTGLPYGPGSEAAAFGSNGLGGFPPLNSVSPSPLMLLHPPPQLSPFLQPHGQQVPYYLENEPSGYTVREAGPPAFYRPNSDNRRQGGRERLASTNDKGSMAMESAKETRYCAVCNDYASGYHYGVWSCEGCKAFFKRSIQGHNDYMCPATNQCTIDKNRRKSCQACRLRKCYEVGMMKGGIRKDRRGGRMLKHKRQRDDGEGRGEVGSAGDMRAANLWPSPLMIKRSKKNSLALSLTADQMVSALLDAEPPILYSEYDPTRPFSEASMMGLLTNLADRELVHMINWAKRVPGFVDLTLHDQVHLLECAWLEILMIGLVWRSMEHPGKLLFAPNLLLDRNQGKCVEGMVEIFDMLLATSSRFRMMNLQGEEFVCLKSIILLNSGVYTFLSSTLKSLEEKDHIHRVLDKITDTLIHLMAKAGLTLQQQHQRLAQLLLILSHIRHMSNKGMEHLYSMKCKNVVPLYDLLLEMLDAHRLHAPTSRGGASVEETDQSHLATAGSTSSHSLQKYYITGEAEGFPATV
Procedure: as §2, §3, §4

[5] = test system: Cyp 3A and/or Cyp 2C9; experiment: Cyp inhibition (data not shown); format: in vitro ADME
[6] = target: ER-α (Rattus norvegicus (Rat), UniProt P06211); format: cell-based
Procedure: COS or 293 cells were plated in DME without phenol red+10% cs FBS at 90,000 cells per well in 24 well plates, and were transfected with 0.25 μg of the vector “ERE-LUC”, where a firefly luciferase gene was driven by two estrogen responsive elements and 0.02 μg of the control CMV-LUC, Renilla where a luciferase gene was driven by a CMV promoter. […] All the receptors were cloned from rat tissue into the PCR3.1 vector backbone. Twenty four hours post transfection, cells were treated with compounds of this invention, estrogen, DHT, and other NRBAs or combinations thereof. Cells were harvested 48 hrs after transfection, and assayed for firefly and Renilla luciferase activity.

[7] = test system: LNCaP cells and human prostate stromal cells xenograft; experiment: LNCaP-stromal cell xenograft tumor growth; format: in vivo, nude mice; conditions: 30 mg/kg/day for 21 days
Procedure: Prostate tumor xenografts were established with LNCaP cells and human prostate stromal cells in nude mice to establish the in vivo anti-proliferative effects of these ER-β NRBAs. A 4:1 ratio (based on cell number) of LNCaP:stroma cells was injected subcutaneously in nude mice and allowed to grow until they attained 100 mm^3 in volume, as measured by calipers. […] Tumor volumes were measured twice a week and percent tumor volume calculated, after 10, 14 and 21 days.

[8] = target: ER-β (Rattus norvegicus (Rat), UniProt Q62986); experiment: ER-β transactivation (ERE-LUC) in COS or 293 cells; format: cell-based
Chain of ER-β (Q62986 whole entry): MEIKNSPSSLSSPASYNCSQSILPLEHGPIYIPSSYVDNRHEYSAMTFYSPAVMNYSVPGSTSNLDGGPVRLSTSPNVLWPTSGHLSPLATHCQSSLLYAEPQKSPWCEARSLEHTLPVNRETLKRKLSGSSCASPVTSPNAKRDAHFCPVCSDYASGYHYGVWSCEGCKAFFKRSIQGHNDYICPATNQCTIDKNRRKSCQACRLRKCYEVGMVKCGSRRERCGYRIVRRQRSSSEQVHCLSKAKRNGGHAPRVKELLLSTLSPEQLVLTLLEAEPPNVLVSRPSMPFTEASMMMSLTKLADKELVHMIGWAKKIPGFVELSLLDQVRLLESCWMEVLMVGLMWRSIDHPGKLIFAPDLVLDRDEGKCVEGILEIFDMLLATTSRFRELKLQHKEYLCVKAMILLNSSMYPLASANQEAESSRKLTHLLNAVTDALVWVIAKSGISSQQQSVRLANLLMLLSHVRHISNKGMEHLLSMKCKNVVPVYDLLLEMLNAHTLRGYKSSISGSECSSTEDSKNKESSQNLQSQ

[9] = test system: LNCaP prostate cancer cells; experiment: 3H thymidine incorporation, LNCaP cells; format: cell-based; conditions: 6 days treatment
Procedure: as §1

[10] = test system: LPS induced THP-1 macrophage cell adhesion to bEND-3 endothelial cells; experiment: Macrophage adhesion assay; format: cell-based
Procedure: To determine the anti-inflammatory effects of ER-β NRBAs in vitro, a macrophage adhesion assay was performed. Macrophages adhere to endothelial cells due to elevated levels of pro-inflammatory cytokines. This principle was used in this assay to determine the effect of one of the ER-NRBAs on bacterial lipopolysaccharide (LPS) induced THP-1 macrophage cell adhesion to bEND-3 endothelial cells.

[11] = test system: rat aorta rings; experiment: Rat aortic ring relaxation; conditions: 10^-6 PE constriction
From the text: Experimental protocol. Equipment used in these studies included a 4-tissue bath system with reservoirs and circulators (RadnotiGlass Technology, Monrovia, Calif.), DSI/Ponemah tissue force analyzer 7700 (Valley View, Ohio), and iWorx/CB Sciencesforce transducers FT-302. The 250 g rats were anesthetized with isoflurane to produce deep anesthesia. The chest of the rat was opened, and about 3 cm length of aorta was removed and placed in a Petri dish containing room temperature Krebs salt solution (KSS, in mM: 120 NaCl, 5 KCl, 1.2 MgSO4.7H20, 2.5 CaCl2.2H2O, 1 KH2PO4, 25 NaHCO3, and 11 glucose). Fat and connective tissue were removed from the aorta taking care not to stretch the vessel. The aorta was then divided into 3-mm-wide rings. Triangular wire holders were inserted through the lumen of the vessel and connected to the force transducer and tissue holder rod in the vessel bath.
Analog-to-digital conversions of force waveforms were accomplished with a DSI/Ponemah tissue force analyzer 7700. The converted data were automatically analyzed with Ponemah Physiology-Smooth Muscle software. All data are summarized as means±standard error. Differences between means were assessed by a conventional ANOVA. This was followed by Student's test. P<0.05 was considered to be statistically significant.
The tension on the rings was adjusted to 1.0 g passive force using the tension adjustment dial for each transducer and allowed to equilibrate for 60 min in the bath with a 95% O2-5% CO2 gas mixture. The rings were washed with fresh buffer every 20 min. Passive force was readjusted to 1.0 g as needed during this period. When rings were stable at 1.0 g of passive force, the baseline was calculated.
Phenylephrine (PE) at a final concentration of […] was added to the bath to contract the ring, and force was allowed to stabilize for 10 min. Then acetylcholine (ACH) at a final concentration of 10^−5 M was added to the precontracted rings to test for endothelial integrity […]. After the initial test for vessel viability and endothelial integrity, the rings were washed three times for 10 min with buffer, allowing it to equilibrate to active force stabilized at 1 g.
Cumulative concentration-response curves to NRBAs were created by increasing the NRBAs concentration in the tissue bath by successive addition of appropriate dilutions of stock solutions to achieve final bath concentrations of 300 nM to 0.15 mM NRBAs.
Table 10 summarizes EC50 values and maximal % decrease of the 10^−6 PE constriction of the aortic ring for individual NRBAs tested

[12] = test system: ARPE-19 cells; experiment: Fluorescent detection of intracellular ROS; format: cell-based, Human; conditions: 150 μM tBH
From the text: Cells were allowed to adhere overnight. […] Removed and washed cells once with HBSS. […] Each drug concentration was done in triplicates.

[13] = test system: uterus; experiment: Uterotropic assay; conditions: 10 mg/kg/day orally, 3 days
Procedure: Statistical differences among groups were evaluated by one-way ANOVA. Rats were treated for 3 consecutive days and then sacrificed 24 h after the last dose. The body of the uterus was cut just above its junction with the cervix and at the junction of the uterine horns with the ovaries. The uterus was weighed with and without intrauterine fluid. Statistical comparisons were made between the weights of empty uteri.

[14] = test system: Rat Aortic Smooth Muscle Cells (RASMC); experiment: RASMC cell proliferation assay (WST-1); format: cell-based; conditions: 10 μM and 30 μM
Procedure: EC50 values were calculated using WinNonLin 5.0.1 using the inhibitory effect sigmoid Emax model.

Structure (SMILES): O=c1c2ccc(O)cc2c(Br)cn1-c1ccc(O)cc1 [12b, 4-bromo-6-hydroxy-2-(4-hydroxyphenyl)-isoquinolin-1(2H)-one]
- Reduction in paw edema [1]: 53%
- Growth of C-26 colon cancer cells [2]: significantly inhibited
- Ki Ratio (ER-α/ER-β) [3]: 20
- Ki ([3]; read-out: ER-β binding constant (Ki)): 0.049 µM
- inhibition at 0.1 µM [3]: 53.6%
- inhibition at 0.1 µM [4]: 0%
- Inhibition of Cyp 3A and/or Cyp 2C9 [5]: exception
- Estradiol activity at 100 nM of NRBA, ER-α ([6]; 100 nM compound compared to 1 nM estradiol): 31.2%
- Xenograft tumor growth [7]: inhibited the growth of tumor significantly
- ER-β agonist activity [8]: ER-β agonists; also recorded: ER-β agonist activity
- activation at 0.1 µM ([8]; HEK293, 48 h, read-out: Estradiol activity at 100 nM of NRBA, ER-β, 100 nM compound compared to 1 nM estradiol): 79%
- Growth of LNCaP prostate cancer cells [9]: significantly inhibited

Structure (SMILES): O=c1c2c(O)cc(O)cc2c(Cl)cn1-c1ccc(O)cc1 [12y, 4-chloro-6,8-dihydroxy-2-(4-hydroxyphenyl)isoquinolin-1(2H)-one]
- Adhesion of 3H labeled THP-1 cells to bEND-3 cells [10]: significantly inhibited
- Ki Ratio (ER-α/ER-β) [3]: 11
- inhibition at 0.1 µM [3]: 97.5%
- inhibition at 0.1 µM [4]: 51.9%
- Classification as ER-α agonist [6]: ER-α agonists
- ER-β agonist activity [8]: ER-β agonist activity
- Mean of Maximal % Decrease of the PE constriction of the aortic ring [11]: 80.63%
- EC50 ([11]; Rattus norvegicus): 13.2 µM
- Inhibition of ROS formation [12]: more than 50%
- Prevention of ROS formation / oxidative stress [12]: protected ARPE-19 cells from oxidative damage

Structure (SMILES): CC/C(=C(\c1ccccc1)c1ccc(OCCN(C)C)cc1)c1ccccc1 [Tamoxifen, reference compound]
- Uterine weight / proliferation of uterus [13]: stimulated the proliferation of uterus significantly
- Toxicity to RASMC (cell numbers reduced compared to day 0) [14]: toxicity
